Source: patent publication US20220110953A1, “METHODS AND COMPOSITIONS FOR TREATING HUMAN PAPILLOMAVIRUS (HPV)-INDUCED CANCERS” (The Board of Regents of the University of Oklahoma, priority 2020, published 2022)

Tests used:
SiHa (HPV 16+) cells = experiment: Effect of IMD 0354 on growth of SiHa cells (cell count after 48h); assay type: cell-based, human; details: 250-1250 nM
Method: (§1) To examine the effect of IMD 0354 on the growth of HaCat (HPV^−), HeLa (HPV 18^+), CasKi and SiHa (both HPV 16^+), the cells were plated out and allowed to adhere overnight. Next day their culture medium was replaced and different concentrations of IMD 0354 (final concentrations 250, 500, 750, 1000, 1250 nM, using DMSO to equalize input volumes and as negative control) were added to the plates. Cells were counted 48h later.
(§2) IKKβ is a serine/threonine kinase that is highly conserved between flies and humans. It regulates the innate immune pathway by activating NF-κB, which in turn activates the expression of antimicrobial peptides to fight against pathogens. To determine whether IKKβ also has a functional link to E6+UBE3A in human cells, we assessed the effect of the commercial IKKβ inhibitor IMD 0354 on the growth of HaCat (HPV^−), HeLa (HPV 18^+), CasKi (HPV 16^+), and SiHa (HPV 16^+) cells. Different concentrations of the inhibitor were tested ranging from 250, 500, 750, 1000, to 1250 nM.

HaCat (HPV−) cells = experiment: Effect of IMD 0354 on growth of HaCat cells (cell count after 48h); assay type: cell-based, human; details: 250-1250 nM
Method: as §1, §2

HeLa (HPV 18+) cells = experiment: Effect of IMD 0354 on growth of HeLa cells (cell count after 48h); assay type: cell-based, human
Method: as §1, §2

HPV 18 E6 = experiment: Western blot for phosphorylated E6 in HeLa cells treated with IKKβ inhibitor; assay type: cell-based, human
Method: HPV-18-positive HeLa cells were seeded on 6 cm dishes and allowed to attach overnight. Fresh medium was then added, containing either 0, 100 nM or 500 nM […] inhibitor (in DMSO). After 5 hours the cells were harvested in 2×SDS-PAGE gel loading buffer, run on SDS-PAGE, and analyzed by Western Blot. The membrane was probed with antibody specific for phosphorylated E6, as described previously (Boon and Banks 2012, DOI: 10.1128/JVI.02074-12). Following incubation with primary antibody, the appropriate horseradish peroxidase (HRP)-conjugated secondary antibodies (Dako) were used, followed by enhanced chemiluminescence (ECL) detection according to the manufacturer's instructions.
To assess whether phosphorylation-mediated regulation of E6 plays a role in suppression of Magi degradation, we treated cells expressing HPV 18 E6 with the IKKβ inhibitor […] (at 100 and 500 nM) and compared with untreated cells for E6 phosphorylation. Western blot analysis was performed using an antibody to detect phosphorylated E6.

[1] = Body weight and gross toxicity in the SiHa xenograft study; assay type: in vivo, mice; details: 10 mg/kg/day i.p., 16 days
Method: (§3) The animal study was conducted in accordance with a standard animal protocol approved by the University of Oklahoma Health Sciences Center Institutional Animal Care and Use Committee (IACUC Protocol #19-009-CHI). […] Auranofin (10 mg/kg/day) or placebo (2% DMSO, 10% ethanol and 5% polyethylene glycol 400) were given daily for 16 days, through intraperitoneal injection. Mice were weighed once per week and animal health was monitored daily. At the end of the study, all mice were euthanized by CO2 inhalation followed by cardiac puncture and total blood collection. Tumors were collected at necropsy and a portion of each tumor from each animal was fixed in paraformaldehyde and embedded in paraffin, while another portion was snap-frozen in liquid nitrogen.
(§4) The tumor volume and body weight data were determined to be not normally distributed, and the final tumor weight data was determined to be normally distributed using the Shapiro-Wilk test. Tumor volume and body weight were compared between treatment groups using the Wilcoxon matched-pairs signed rank test. A two-way ANOVA with multiple comparisons was used to evaluate the interaction between time and treatment. An unpaired t-test was used to compare the final tumor weights between the two treatment groups. The p values <0.05 were considered statistically significant. Statistical analysis was performed using Prism 8.0 (GraphPad).

[2] = tested on: HPV 16+ and HPV 18+ human cervical cancer cell lines; experiment: Auranofin cell growth in human cervical cancer cell lines; assay type: cell-based; details: FIG. 6
[3] = tested on: SiHa cervical cancer xenografts (HPV 16+); experiment: SiHa tumor xenograft model; assay type: in vivo, mice; details: 10 mg/kg/day i.p., vs placebo
Method: as §3, §4

Structure (SMILES) | effect on cell growth (SiHa (HPV 16+) cells) | effect on cell growth (HaCat (HPV−) cells) | number of surviving cells relative to the initial number of cells (HeLa (HPV 18+) cells; 250 nM) [%] | number of surviving cells relative to the initial number of cells (HeLa (HPV 18+) cells; 1250 nM) [%] | effect on cell growth (HeLa (HPV 18+) cells; 250-1250 nM) | E6 phosphorylation (Western blot) (HPV 18 E6; HeLa cell extracts, 100 nM, 5 hours) | E6 phosphorylation (Western blot) (HPV 18 E6; HeLa cell extracts, 500 nM, 5 hours) | E6 phosphorylation (Western blot) (HPV 18 E6; cells expressing HPV 18 E6, at 100 and 500 nM, compared with untreated cells) | gross toxicity to the animals [1] | body weights ([1]; vs placebo, any time point, p>0.05) | activity against cervical cancer cell lines (cell growth) [2] | tumor growth (tumor volume over time) ([3]; 16 days, Wilcoxon p=0.0011) | tumor volume after 16 days of treatment ([3]; two-way ANOVA multiple comparisons p=0.0016)
O=C(Nc1cc(C(F)(F)F)cc(C(F)(F)F)c1)c1cc(Cl)ccc1O [IMD 0354] | significant | minor effect | 40 | 10 | most strongly affected | lack of E6 phosphorylation | results in phosphorylation of E6 | extensive phosphorylation of E6 | – | – | – | – | –
CC(=O)OC[C@H]1O[C@@H]([S-])[C@H](OC(C)=O)[C@@H](OC(C)=O)[C@@H]1OC(C)=O.CCP(CC)CC.[Au+] [Auranofin] | – | – | – | – | – | – | – | – | did not cause gross toxicity | no significant differences | active | significant reduction in tumor growth | significant reduction in tumor volume
